{"source": "patent US20090215777A1", "about": "“Pyrimidine Derivatives As HSP90 Inhibitors” (Astex Therapeutics Ltd., priority 2005, published 2009)"}
{"molecular_target": "T1, human Hsp90α N-terminal domain (Homo sapiens, UniProt P07900)", "T1 construct": "Cloning, expression, and purification of the Human Hsp90α N-terminal domain were performed according to published methods; made in house", "test": "Isothermal titration calorimetry (ITC)", "assay_type": "binding", "settings": "25 mM Tris, 100 mM NaCl, 1 mM MgCl2, 1 mM TCEP, 5% DMSO, pH 7.4", "protocol": "The ability of the compounds of the invention to bind to human Hsp90 proteins was determined using isothermal titration calorimetry.\nIsothermal titration calorimetry (ITC) experiments were performed with a VP-ITC titration calorimeter (Microcal Inc., Northampton, Mass., USA). […] All solutions were filtered and degassed prior to a titration being carried out. The enthalpy change resulting from each injection of ligand was obtained through integration of the calorimetric signal. Data were analysed using Origin 7.0 (Microcal Software Inc., Northampton, Mass.). Heats of dilution were estimated using the final injections of each individual titration and subtracted before data fitting. Different ITC experimental formats were employed in order to obtain compound dissociation constants (Kd's) over a wide range of affinities. […] In this type of experiment the stoichiometry parameter (N) was locked at 1 for data fitting.", "units": {"Kd": "nM"}}
{"molecule": "Nc1nc(Cl)cc(-c2ccncc2Cl)n1", "note": "[Example 50, 4-Chloro-6-(3-chloro-pyridin-4-yl)-pyrimidin-2-ylamine]", "Kd": "< 1000"}
{"molecule": "Nc1nc(Cl)cc(-c2ccc(O)cc2Cl)n1", "note": "[Example 64, 4-(2-Amino-6-chloro-pyrimidin-4-yl)-3-chloro-phenol]", "Kd": "< 1000"}
{"molecule": "CC(C)(Oc1ccc(-c2cc(Cl)nc(N)n2)c(Cl)c1)C(=O)OCC1CCNCC1", "note": "[Example 83, 2-[4-(2-Amino-6-chloro-pyrimidin-4-yl)-3-chloro-phenoxy]-2-methyl-prop-ionic acid piperidin-4-ylmethyl ester]", "Kd": "< 1000"}
{"molecule": "COc1cccc(OCCN2CCOCC2)c1-c1cc(Cl)nc(N)n1", "note": "[Example 48, 4-Chloro-6-[2-methoxy-6-(2-morpholin-4-yl-ethoxy)-phenyl]-pyrimidin-2-ylamine]", "Kd": "< 1000"}
{"molecule": "COc1cccc(-c2cc(Cl)nc(N)n2)c1OC", "note": "[Example 70, 4-Chloro-6-(2,3-dimethoxy-phenyl)-pyrimidin-2-yl-amine]", "Kd": "< 1000"}
{"molecule": "COc1cccc(OC)c1-c1cc(Cl)nc(N)n1", "note": "[Example 4, 4-Chloro-6-(2,6-dimethoxy-phenyl)-pyrimidin-2-ylamine]", "Kd": "< 1000"}
{"molecule": "COc1ccc(-c2c(OC)ccc(Br)c2OC)c(OC)c1-c1cc(Cl)nc(N)n1", "note": "[Example 46, 4-(3′-Bromo-2,4,2′,6′-tetramethoxy-biphenyl-3-yl)-6-chloro-pyrimidin-2-ylamine]", "Kd": "< 1000"}
{"molecule": "COc1cc(Cl)cc(Cl)c1-c1cc(Cl)nc(N)n1", "note": "[Example 59, 4-Chloro-6-(2,4-dichloro-6-methoxy-phenyl)-pyrimidin-2-ylamine]", "Kd": "< 1000"}
{"molecule": "Nc1ncc(-c2cn[nH]c2)c(-c2ccc(Cl)cc2Cl)n1", "note": "[Example 63, 4-(2,4-Dichloro-phenyl)-5-(1H-pyrazol-4-yl)-pyrimidin-2-ylamine]", "Kd": "< 10000"}
{"molecule": "COc1cc(-c2cc(Cl)nc(N)n2)c(Cl)cc1Cl", "note": "[Example 61, 4-Chloro-6-(2,4-dichloro-5-methoxy-phenyl)-pyrimidin-2-ylamine]", "Kd": "< 1000"}
{"molecule": "CC(C#N)Oc1ccc(-c2cc(Cl)nc(N)n2)c(Cl)c1", "note": "(stereo not shown) [Example 75, 2-[4-(2-Amino-6-chloro-pyrimidin-4-yl)-3-chloro-phenoxy]-propionitrile]", "Kd": "< 1000"}
{"molecule": "COc1ccc(-c2cc(Cl)nc(N)n2)c(Cl)c1", "note": "[Example 73, 4-Chloro-6-(2-chloro-4-methoxy-phenyl)-pyrimidin-2-ylamine]", "Kd": "< 1000"}
{"molecule": "Nc1nccc(-c2ccc(Cl)cc2Cl)n1", "note": "[Example 60, 4-(2,4-Dichloro-phenyl)-pyrimidin-2-ylamine]", "Kd": "< 10000"}
{"molecule": "COc1c(CC(C)(C)C)cccc1-c1cc(Cl)nc(N)n1", "note": "[Example 71, 4-Chloro-6-[3-(2,2-dimethyl-propyl)-2-methoxy-phenyl]-pyrimidin-2-yl-amine]", "Kd": "< 1000"}
{"molecule": "Cc1cccc(-c2cc(Cl)nc(N)n2)c1Cl", "note": "[Example 76, 4-Chloro-6-(2-chloro-3-methyl-phenyl)-pyrimidin-2-yl-amine]", "Kd": "< 1000"}
{"molecule": "COc1cc(OC)c(-c2cc(Cl)nc(N)n2)c(OC)c1", "note": "[Example 27, 4-Chloro-6-(2,4,6-trimethoxy-phenyl)-pyrimidin-2-yl-amine]", "Kd": "< 1000"}
{"molecule": "Nc1nc(Cl)cc(-c2ccc(Cl)cc2Cl)n1", "note": "[Example 30, 4-Chloro-6-(2,4-dichloro-phenyl)-pyrimidin-2-yl-amine]", "Kd": "< 1000"}
{"molecule": "CCOC(=O)C(C)Oc1ccc(-c2cc(Cl)nc(N)n2)c(Cl)c1", "note": "(stereo not shown) [Example 67]", "Kd": "< 1000"}
{"molecule": "Nc1ncc(Br)c(-c2ccc(Cl)cc2Cl)n1", "note": "[Example 62, 5-Bromo-4-(2,4-dichloro-phenyl)-pyrimidin-2-ylamine]", "Kd": "< 30000"}
{"molecule": "CC(C)(C)Cc1cccc(-c2cc(Cl)nc(N)n2)c1Cl", "note": "[Example 72, 4-Chloro-6-[2-chloro-3-(2,2-dimethyl-propyl)phenyl]-pyrimidin-2-yl-amine]", "Kd": "< 1000"}
{"molecule": "CN(C)CCOc1ccc(-c2cc(Cl)nc(N)n2)c(Cl)c1", "note": "[Example 74, 4-Chloro-6-[2-chloro-4-(2-dimethylamino-ethoxy)-phenyl]-pyrimidin-2-yl amine]", "Kd": "< 10000"}
{"molecule": "COc1cccc(OCCN2CCCCC2)c1-c1cc(Cl)nc(N)n1", "note": "[Example 52, 4-Chloro-6-[2-methoxy-6-(2-piperidin-1-yl-ethoxy)-phenyl]-pyrimidin-2-ylamine]", "Kd": "< 10000"}
{"molecule": "CC(C)Oc1ccc(-c2cc(Cl)nc(N)n2)c(Cl)c1", "note": "[Example 65, 4-Chloro-6-(2-chloro-4-isopropoxy-phenyl)-pyrimidin-2-ylamine]", "Kd": "< 1000"}
{"molecule": "COc1cccc(OCC2CCOCC2)c1-c1cc(Cl)nc(N)n1", "note": "[Example 21, 4-Chloro-6-[2-methoxy-6-(tetrahydro-pyran-4-yl-methoxy)-phenyl]-pyrimidin-2-yl-amine]", "Kd": "< 1000"}
{"molecule": "Nc1nc(Cl)cc(-c2cc(OCc3ccccc3)c(Cl)cc2Cl)n1", "note": "[Example 78, 4-(5-Benzyloxy-2,4-dichloro-phenyl)-6-chloro-pyrimidin-2-yl-amine]", "Kd": "< 1000"}
{"molecule": "CCOC(=O)C(C)(C)Oc1ccc(-c2cc(Cl)nc(N)n2)c(Cl)c1", "note": "[Example 68, 2-[4-(2-Amino-6-chloro-pyrimidin-4-yl)-3-chloro-phenoxy]-2-methyl-propionic acid ethyl ester]", "Kd": "< 1000"}
{"molecule": "CN(C)CCOc1cccc(Cl)c1-c1cc(Cl)nc(N)n1", "note": "[Example 55, 4-Chloro-6-[2-chloro-6-(2-dimethylamino-ethoxy)-phenyl]-pyrimidin-2-yl amine]", "Kd": "< 1000"}
{"molecule": "CC(C)(C)OC(=O)N1CCC(COC(=O)C(C)(C)Oc2ccc(-c3cc(Cl)nc(N)n3)c(Cl)c2)CC1", "note": "[Example 82, 4-{2-[4-(2-Amino-6-chloro-pyrimidin-4-yl)-3-chloro-phenoxy]-2-methyl-propionyloxy-methyl}-piperidine-1-carboxylic acid tert-butyl ester]", "Kd": "< 1000"}
{"molecule": "CN(C)CCCOc1cccc(Cl)c1-c1cc(Cl)nc(N)n1", "note": "[Example 54]", "Kd": "< 1000"}
{"molecule": "COc1ccc(Cl)c(-c2cc(Cl)nc(N)n2)c1", "note": "[Example 49, 4-Chloro-6-(2-chloro-5-methoxy-phenyl)-pyrimidin-2-ylamine]", "Kd": "< 1000"}
{"molecule": "Nc1nc(Cl)cc(-c2cc(O)c(Cl)cc2Cl)n1", "note": "[Example 77, 5-(2-Amino-6-chloro-pyrimidin-4-yl)-2,4-dichloro-phenol]", "Kd": "< 1000"}
{"molecule": "COc1ccc2ccccc2c1-c1cc(Cl)nc(N)n1", "note": "[Example 51, 4-Chloro-6-(2-methoxy-naphthalen-1-yl)-pyrimidin-2-ylamine]", "Kd": "< 1000"}
{"molecule": "CC(C)(C)OC(=O)NCCOc1cccc(Cl)c1-c1cc(Cl)nc(N)n1", "note": "[Example 57]", "Kd": "< 1000"}
{"molecule": "COc1ccc(-c2ccccc2)c(OC)c1-c1cc(Cl)nc(N)n1", "note": "[Example 45, 4-Chloro-6-(2,4-dimethoxy-biphenyl-3-yl)-pyrimidin-2-ylamine]", "Kd": "< 10000"}
{"molecule": "COc1cccc(OCC(C)C)c1-c1cc(Cl)nc(N)n1", "note": "[Example 47, 4-Chloro-6-(2-isobutoxy-6-methoxy-phenyl)-pyrimidin-2-ylamine]", "Kd": "< 1000"}
{"molecule": "Nc1nc(Cl)cc(-c2cc(OCCN3CCOCC3)c(Cl)cc2Cl)n1", "note": "[Example 80, 4-Chloro-6-[2,4-dichloro-5-(2-morpholin-4-yl-ethoxy)-phenyl]-pyrimidin-2-yl-amine]", "Kd": "< 1000"}
{"molecule": "CC(C)(C)OC(=O)NCCCOc1cccc(Cl)c1-c1cc(Cl)nc(N)n1", "note": "[Example 53, {3-[2-(2-Amino-6-chloro-pyrimidin-4-yl)-3-chloro-phenoxy]-propyl}-carbamic acid tert-butyl ester]", "Kd": "< 1000"}
{"molecule": "NCCOc1cccc(Cl)c1-c1cc(Cl)nc(N)n1", "note": "[Example 56, 4-[2-(2-Amino-ethoxy)-6-chloro-phenyl]-6-chloro-pyrimidin-2-yl-amine]", "Kd": "< 1000"}
{"molecule": "CCOc1ccc(-c2cc(Cl)nc(N)n2)c(Cl)c1", "note": "[Example 29]", "Kd": "< 1000"}
{"molecule": "CCOc1ccc2ccccc2c1-c1cc(Cl)nc(N)n1", "note": "[Example 44, 4-Chloro-6-(2-ethoxy-naphthalen-1-yl)-pyrimidin-2-ylamine]", "Kd": "< 10000"}
{"molecule": "COc1cccc(-c2cc(Cl)nc(N)n2)c1Cl", "note": "[Example 69, 4-Chloro-6-(2-chloro-3-methoxy-phenyl)-pyrimidin-2-yl-amine]", "Kd": "< 1000"}
{"molecule": "CCN(CC)CCOc1cc(-c2cc(Cl)nc(N)n2)c(Cl)cc1Cl", "note": "[Example 79, 4-Chloro-6-[2,4-dichloro-5-(2-diethylamino-ethoxy)-phenyl]-pyrimidin-2-yl-amine]", "Kd": "< 1000"}
{"molecule": "COc1ccccc1-c1cc(C(F)F)nc(N)n1", "note": "[Example 58, 4-Difluoro-methyl-6-(2-methoxy-phenyl)-pyrimidin-2-ylamine]", "Kd": "< 30000"}
{"molecule": "NC(=O)COc1cc(-c2cc(Cl)nc(N)n2)c(Cl)cc1Cl", "note": "[Example 81, 2-[5-(2-Amino-6-chloro-pyrimidin-4-yl)-2,4-dichloro-phenoxy]-acetamide]", "Kd": "< 1000"}
{"molecule": "COc1cccc(OC)c1-c1cc(C)nc(N)n1", "note": "[Example 1, 4-(2,6-Dimethoxy-phenyl)-6-methyl-pyrimidin-2-ylamine]", "Kd": "< 10000"}
{"molecule": "CCOC(=O)COc1ccc(-c2cc(Cl)nc(N)n2)c(Cl)c1", "note": "[Example 66, [4-(2-Amino-6-chloropyrimidin-4-yl)-3-chloro-phenoxy]-acetic acid ethyl ester]", "Kd": "< 1000"}
